Here are results for four molecules from ChEMBL document CHEMBL3860110, “First Structure-Activity Relationship of 17β-Hydroxysteroid Dehydrogenase Type 14 Nonsteroidal Inhibitors and Crystal Structures in Complex with the Enzyme” (J Med Chem, 2016).

In data set [1] the target is T1, 17-beta-hydroxysteroid dehydrogenase type 2 (Homo sapiens, UniProt P37059).
T1 sequence (P37059 whole entry): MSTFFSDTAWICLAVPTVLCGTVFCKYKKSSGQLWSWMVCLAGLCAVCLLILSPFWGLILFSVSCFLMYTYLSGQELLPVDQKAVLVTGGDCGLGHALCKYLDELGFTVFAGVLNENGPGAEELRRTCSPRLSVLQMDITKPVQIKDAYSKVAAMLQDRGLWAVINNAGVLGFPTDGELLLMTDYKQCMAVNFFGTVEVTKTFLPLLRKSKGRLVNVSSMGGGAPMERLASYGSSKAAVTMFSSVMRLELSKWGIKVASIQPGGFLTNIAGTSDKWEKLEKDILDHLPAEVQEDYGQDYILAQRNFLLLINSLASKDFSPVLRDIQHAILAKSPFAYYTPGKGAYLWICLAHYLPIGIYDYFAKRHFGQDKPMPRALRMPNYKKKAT
Kind of data set: Inhibition of purified human placental microsomal 17beta-HSD2 using [3H]-E2 substrate and NAD+ by HPLC based radioactive […] assay.

Data set [2] can be described thus: Dissociation constant, pKa of the compound at OH/C-ring. Format: physicochemical.
Data set [3] addresses T2, 17-beta-hydroxysteroid dehydrogenase 14 (Homo sapiens) (UniProt Q9BPX1).
T2 sequence (whole entry): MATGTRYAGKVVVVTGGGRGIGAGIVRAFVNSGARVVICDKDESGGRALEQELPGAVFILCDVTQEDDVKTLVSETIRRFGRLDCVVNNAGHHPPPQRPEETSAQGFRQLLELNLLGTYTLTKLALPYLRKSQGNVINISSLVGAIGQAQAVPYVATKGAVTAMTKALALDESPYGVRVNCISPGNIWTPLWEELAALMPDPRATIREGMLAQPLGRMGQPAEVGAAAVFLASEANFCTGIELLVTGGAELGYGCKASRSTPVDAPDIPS
Kind of data set: Inhibition of N-terminal 6His-tagged human HSD17B14 expressed in Escherichia coli BL21 (DE3) pLysS at 22.2 uM using E2 substrate and NAD+ incubated for 2 hrs using purified enzyme by fluorimetric assay.

Structures are written as SMILES.

For the molecule `Cc1cc(-c2ccc(C(=O)c3ccc(F)c(O)c3)cc2)ccc1O`, the IC50 in data set [1] came to 40 nM.
Molecule `O=C(c1cccc(O)c1)c1cccc(-c2ccc(O)c(F)c2)n1` had a pKa in data set [2] of 8.8.
As for `O=C(c1ccc(F)c(O)c1)c1cccc(-c2ccc(O)c(F)c2)n1`, in data set [2], the pKa is 7.8.
`COc1ccc(-c2ccc(C(=O)c3ccc(F)c(OC)c3)nc2)cc1F`: the inhibition in data set [3] stood at 57%.
